From patent US20080242594A1, “Methods for Promoting Stem Cell Proliferation and Survival” (priority 2005, published 2008)

What was measured:
[1] = system: E13.5 cortical embryonic mouse CNS stem cells; assay: CNS stem cell plating efficiency / colony formation / survival; type: cell-based
Description: (§1) Cell culture: E13.5 cortical embryonic mouse and adult rat subventricular zone CNS stem cells were grown as previously described (Johe et al., Genes Dev 10:3129-40, 1996; Rajan et al., J Neurosci 18:3620-9, 1998). Cells were expanded in serum-free DMEM/F12 medium with N2 supplement with FGF2 (20 ng/ml) for 5 days and were re-plated at 1000-10,000 cells per cm^2. FGF2 was included throughout our experiments, unless otherwise stated.
To explore these paradoxical observations, CNS stem cell cultures from mid-gestation (embryonic day 13.5) mouse dorsal telencephalon were treated with soluble Notch ligands. […] Following initial passaging, the cells were plated at a density of 1000 cells/cm^2, cultured for 5 days in the presence of FGF2, and colony numbers, sizes, and BrdU incorporation (after a 4 hour BrdU pulse) were enumerated. Notch activation by Jagged-1 or Delta-4 (200 ng/ml) increased the number of colonies generated in vitro by over 3-fold (FIG. 1a). […] The effects of Notch activation were most dramatic when treatments were initiated at the start of the culture.
Insulin in the medium is also thought to promote cell survival. […] Seeding cells in the absence of insulin caused the plating efficiency measured at five days to drop to 29.9%±37.9 (FIG. 1e). Delta-4 was able to compensate for the lack of insulin in the medium, and restored plating efficiency (125%±19.4). Because Notch activation improved survival, activation of Akt, a ser/threonine kinase known to be involved in cell survival, was assayed. Notch activation rapidly (5 minutes) promoted the phosphorylation of Akt on Ser473 and […] in both the presence and absence of insulin (FIG. 1f).

STAT3 = STAT3 phosphorylation (Ser727, Tyr705) immunoblot in CNS stem cells; type: cell-based, mouse
Text: Ligands that activate JAK/STAT signaling promote astrocytic differentiation of CNS stem cells (Johe et al., Genes Dev 10:3129-40, 1996; Raj an et al., J Neurosci 18:3620-9, 1998; Bonni et al., Science 278:477-83, 1997; Song et al., Nat Neurosci 7:229-35, 2004; He et al., Nat Neurosci 8:616-625, 2005). When applying CNTF to CNS stem cells it was noted that low concentrations of CNTF stimulated survival but not expression of astrocyte specific genes. This is consistent with previous observations of Akt phosphorylation downstream of gp130 activation (Taga et al., Annu Rev Immunol 15:797-819, 1997). […] At high concentrations (20 ng/ml) the phosphorylation of Tyr705 can be blocked by an inhibitor of JAK while allowing a CNTF-induced increase in Ser727 phosphorylation (FIG. 2B) (Thompson et al., Bioorg Med Chem Lett 12:1219-23, 2002).
CNTF was used as a positive control; CNTF, induced the phosphorylation on both sites. With both CNTF and Notch activation, phosphorylation peaked at around 30 min. STAT3 phosphorylation on Ser727 following Notch activation was sensitive to the γ-secretase inhibitor DAPT (FIG. 2e). […] In contrast to CNTF, no Tyr705 phosphorylation was detected at any of the doses of Notch receptor ligands.
It was determined that insulin also maintains phosphorylation of serine 727 in STAT3 in foetal neural stem cell cultures.

mES (D3) cells = assay: mES cell plating efficiency, Oct4 and STAT3 phosphorylation in the presence of LIF; type: cell-based, mouse; conditions: for Oct4 expression: five day treatments in the presence of LIF; for cell survival in a plating efficiency assay: in the presence of LIF
Text: FIGS. 10a-10c are a set of images showing JAK inhibition reduces the phosphorylation of STAT3 on Ser727 in mES cell cultures. […] Very low levels of phosphorylated p38 were detectable under all conditions. […] Self-renewal of mES cells correlated with Ser727 phosphorylation.
mES (D3) cells were obtained from ATCC and were maintained in feeder-free cultures on gelatin-coated plates supplemented with 1400 units/ml LIF.
There is great interest in conditions that support the growth of mouse and human ES cells. In contrast to CNS SC (FIG. 2, FIG. 3) and hES SC (se below), the growth of undifferentiated mouse ES cells depends on the stimulation of the JAK/STAT pathway and STAT3 phosphorylation on Tyr705 has been specifically shown to be essential for self-renewal of mouse ES cells (Niwa et al., Genes Dev 12:2048-60, 1998; Matsuda et al., Embo J 18:4261-9, 1999). Ligands that stimulate the JAK/STAT pathway cause human ES cells to differentiate (Daheron et al., Stem Cells 22:770-8, 2004; Humphrey et al., Stem Cells 22:522-30, 2004). It was determined if the Notch/sSTAT survival pathway is present in mouse or human ES cells.

Hes3 = Hes3 expression (RT-PCR, immunohistochemistry) in CNS stem cells; type: cell-based, mouse; conditions: for Hes3 mRNA levels: CNTF 20 ng/ml
Description: RT-PCR: For reverse-transcriptase PCR analysis, RNA was extracted from cell cultures or brain homogenates with Trizol (Invitrogen, 15596-026), and PCR reactions were performed with the ProSTAR First-Strand RT-PCR Kit (Stratagene, 200420). Primers were used for the following genes: Hes1, Hes2, Hes3, Hes5, Hes6, Hey2; Hes7
Notch signaling regulates transcription of the Hes/Hey gene family, a group of genes implicated in the control of differentiation (Iso et al., J Cell Physiol 194:237-55, 2003). RT-PCR was used to assess mRNA regulation of these genes one hour after Notch activation in CNS stem cells. […] The ability of high concentrations of CNTF to inhibit Hes3 induction following Notch activation was dependent on JAK activity (FIG. 4e). In contrast, in the absence of added Notch ligand, Hes3 mRNA levels were elevated by high CNTF and the JAK inhibitor (FIG. 4e).
Conversely, treatment with ciliary neurotrophic factor (CNTF), a cytokine that opposes the signal transduction pathway downstream of Notch activation opposed the ability of D114 to induce Hes3 transcription. Immunohistochemical experiments were performed that documented D114, CNTF regulate Hes3 expression. Thus, at the protein expression level, D114 maintains and CNTF inhibits Hes3 expression.

adult rat SVZ stem cells = assay: Adult SVZ stem cell plating efficiency and colony size; type: cell-based
Description: as §1
Very little protein or mRNA were detected outside the SVZ (FIG. 4g). Adult CNS stem cells can be cultured as a monolayer in vitro (FIG. 4h) and they show similar responses to extracellular signals that regulate stem cell differentiation upon withdrawal of the mitogen that sustains the undifferentiated state (Johe et al., Genes Dev 10:3129-40, 1996). To ask if Notch activation promotes survival in rat adult SVZ cultures, isolated cells were grown in the presence of FGF2 with and without Delta-4 for one week. […] When FGF2 was withdrawn for a week, cells at clonal density generated all three CNS lineages (FIG. 8C, Table 4).

[2] = in the presence of FGF2 for one week

Molecule	plating efficiency ([1]; absence of insulin in the medium, five days)	concentration at which peak STAT3 phosphorylation was achieved (STAT3; dose response, Ser727) [ng/mL]	Oct4 expression (mES (D3) cells)	cell survival in a plating efficiency assay (mES (D3) cells)	Hes3 mRNA levels (Hes3)	Hes3 expression at the protein expression level (Hes3; immunohistochemical)	colony size (adult rat SVZ stem cells; [2])	plating efficiency (adult rat SVZ stem cells; [2])	CNS stem cell survival / plating efficiency ([1]; 5 days, versus FGF2 control, CNTF low 0.01, 0.1 ng/ml or high 20 ng/ml with JAK inhibitor)	effect on CNTF-induced STAT3 phosphorylation (STAT3; CNTF 20 ng/ml)	STAT3 phosphorylation on Ser727 and Tyr705 (mES (D3) cells; 90 min)	enhancement of plating efficiency (adult rat SVZ stem cells)
Delta-4: soluble Notch ligand Delta-4 (1389-D4) from R&D	125%±19.4	~1	did not affect Oct4 expression	did not significantly alter cell survival	increases its transcription	maintains	278.5%±52.5	1050%±273.8				
CC(C)(C)c1nc2c3ccc(F)cc3c3c(=O)[nH]ccc3c2[nH]1 [JAK Inhibitor, 2-(1,1-Dimethylethyl)-9-fluoro-3,6-dihydro-7H-benz[h]-imidaz[4,5-f]isoquinolin-7-one]			down-regulated Oct4	reduced it	no effect on Hes3 mRNA				increased survival	selectively blocked Tyr705 but not Ser727 phosphorylation	significant down-regulation	approx. 40%
